Test results reported in publication PMC9503459, “Antifungal Activity, Structural Stability, and Immunomodulatory Effects on Human Immune Cells of Defensin from the Lentil Lens culinaris” (Membranes, 2022).
Values joined by “and” are separate entries in the source; they are usually repeats but may differ in a detail not shown here. Identical values can stand only once. No end group written: not given here.

How the values were obtained:
[1] = system: clinical isolate of C. krusei (225/2); test: Antifungal microdilution assay, C. krusei; format: cell-based, Candida krusei; conditions: 24 h; for inhibition of the growth: C. krusei
Method: The clinical isolates of Candida albicans (v47a3), C. krusei (225/2) and C. glabrata (252/2) were collected from patients with human immunodeficiency virus (HIV) infection and provided by G.N. Gabrichevsky Research Institute for Epidemiology and Microbiology (Moscow, Russia). Strains stocks were kept at −70 ℃ in 10% nonfat milk with 10% glycerol.
Antifungal susceptibility tests were performed by the microdilution method using 96-well microplates. Yeast cells in stock were inoculated onto modified YPD (yeast extract 5 g/L, peptone 10 g/L, glucose 10 g/L) agar plates, and incubated for 24 h at 37 ℃. After replating, cells were cultured in modified YPD broth at 37 ℃ to optical density 1.0 at 540 nm. Further, yeast cells in modified YPD broth at concentration of 5 × 10^4 cells/mL were mixed with equal volumes of serial two-fold dilutions of the peptide in water which started at the highest peptide concentration of 200 µM. Final peptide concentrations in the wells were 100, 50, 25, 12.5, 6.25, 3.125, and 1.56 μM. Controls without defensin were also tested. Plates were incubated at 30 ℃ during 24 h. Yeast growth was estimated using inverted microscope as well as by measuring the optical density at 540 nm. Percentage of growth inhibition was defined as: growth inhibition (%) = ((Acontrol − Asample)/Acontrol) × 100%. All of the experiments were performed twice in triplicate. The t-test was performed to study the statistical difference (p-value) between the means of controls and samples with different peptide concentrations. The experiment with lentil Lens culinaris lipid transfer protein Lc-LTP2 was carried out for comparison.

[2] = system: primary CD14+ blood monocytes; test: Cytokine response by multiplex xMAP, monocytes; format: cell-based, human; conditions: 2 µM, 24 h
Method: Colorectal adenocarcinoma Caco-2 cell line (ATCC HTB-37) was cultured in complete DMEM/F12 (1:1) medium containing 10% fetal bovine serum (FBS, Gibco) and 1X antibiotic-antimycotic solution (1XAAS, Invitrogen, Waltham, MA, USA). The acute monocytic leukemia THP-1 line (ATCC TIB-202) was cultured in complete RPMI-1640 medium, containing 10% FBS, 1XAAS, and […]. THP-1 cells were differentiated into pro-inflammatory macrophages (Mφ1) with phorbol 12-myristate 13-acetate (Sigma-Aldrich) for 24 h and subsequently polarized with lipopolysaccharide from E. coli (Sigma-Aldrich) and rhIFN-γ (Sigma-Aldrich) for another 48 h according to previously reported protocol. All cells were cultured in a humidified CO2 incubator (5% CO2, 37 °C). Primary peripheral blood mononuclear cells (PBMCs) collected from a healthy donor were purchased from American Type Culture Collection (ATCC PCS-800-011). CD4^+ T-helper and CD8^+ T cytotoxic cells were isolated from PBMCs by magnetic separation with mouse anti-human CD4-PE (clone 13B8.2, Beckman Coulter Diagnostics, Pasadena, CA, USA) and CD8-PE (clone REA734, Miltenyi Biotec, Bergisch Gladbach, Germany), Anti-PE MicroBeads (Miltenyi Biotec), and LS Separation Columns (Miltenyi Biotec). Isolated CD4^+ and CD8^+ cells were expanded separately with Dynabeads™ Human T-Expander CD3/CD28 (Gibco, Waltham, MA, USA) in RPMI-1640 supplemented with 10% FBS, 1XAAS and 100 U/mL rh-IL-2 (Gibco). Regulatory CD4^+ FoxP3^+ T cells (Tregs) were isolated from PBMCs by magnetic separation with CD4^+CD25^+ Regulatory T Cell Isolation Kit, human (Miltenyi Biotec). Primary CD14^+ blood monocytes were isolated from PBMCs by adherence according to standard technique. Monocyte-derived mature dendritic cells (moDCs) were obtained from CD14^+ blood monocytes according to the previously reported protocol. Briefly, blood monocytes were incubated in complete RPMI-1640 medium, containing 10% FBS, 1XAAS, 800 U/mL rhGM-CSF (Sci-Store, Russia, Moscow) and 500 U/mL rhIL-4 (Sci-Store) for 3 days. Fresh complete RPMI-1640 medium with rhGM-CSF and rhIL-4 was added to the culture on day 3. On day 5, fresh complete RPMI-1640 containing 100 U/mL rhTNF-α (Sigma) as well as 800 U/mL rhGM-CSF and 500 U/mL rhIL-4 was added and the culture was incubated for another 4 days until full maturation.
Caco-2 cells were seeded into the wells of a 48-well plate, coated with 0.1% bovine collagen (Sigma-Aldrich) for 24 h, 3 weeks before the experiment with complete DMEM/F12 (1:1) medium renewal every 2–3 days. Monocytes, moDCs, CD4^+ T-helper and CD8^+ T cytotoxic cells, Mφ1, and Regulatory CD4^+ FoxP3^+ T cells were seeded into the wells of 48-well plates in the complete RPMI-1640 medium supplemented with 10% Human AB serum (HABS, Capricorn Scientific, Ebsdorfergrund, Germany) and 1XAAS 24 h prior to the experiment; medium in Caco-2-containing wells was also replaced with the same medium. After 24 h, half of the medium in each well was replaced by fresh complete RPMI-1640 medium with 10% HABS, supplemented with 4 µM of Lc-def for the sample wells or fresh medium alone for the control wells. Cell cultures were kept in CO2-incubator (5% CO2, 37 °C) for another 24 h. Culture supernatants were collected 24 h later and stored at −70 °C degrees less than one month prior to the analytes assessment. […]

For “Lc-def: defensin from lentil Lens culinaris seeds (UniProt:B3F051), recombinant, overexpressed in Escherichia coli (KTCENLSDSFKGPCIPDGNCNKHCKEKEHLLSGRCRDDFRCWCTRNC; disulfide (positions not given here); ends not checked; also: disulfide bonds present, pairing not given here; UniProt B3F051 28-74, looked up)”, the IC50 ([1]; C. krusei clinical isolate, microdilution, modified YPD, 30 °C, OD540, twice in triplicate, read-out: concentration causing 50% growth inhibition) was 25 to 50 µM and 25 µM, the “inhibition of the growth” value ([1]; 50 μM peptide) was roughly 90% and the “inhibition of the growth” value ([1]; 100 μM peptide) was less than 100%. The EGF [2] was 11.56 pg/mL, the Eotaxin [2] was <3.23↓ pg/ml and the FGF-2 [2] was 44.46 pg/mL. For the same substance, the FLT-3L [2] was 1.04 pg/mL, the Fractalkine [2] was <23.19↓ pg/ml and the G-CSF [2] was 22.68 pg/mL. The GM-CSF [2] was 3.49 pg/mL, the GROa [2] was 777.01 pg/mL and the IFNa2 [2] was 21.43 pg/mL. For the same substance, the IFNg [2] was <1.99↓ pg/ml, the IL-1RA [2] was 10.83 pg/mL and the IL-1a [2] was 17.69 pg/mL. For the same substance, the IL-1b [2] was <18.72↓ pg/ml, the IL-2 [2] was 2.62 pg/mL and the IL-3 [2] was <0.48↓ pg/ml. For the same substance, the IL-4 [2] was 0.58 pg/mL, the IL-5 [2] was <0.24↓ pg/ml and the IL-6 [2] was 378 pg/mL and 378.12 pg/mL. For the same substance, the IL-7 [2] was <0.33↓ pg/ml, the IL-8 [2] was 5662 pg/mL and the IL-9 [2] was 1.6 pg/mL. The IL-10 [2] was 8.4 pg/mL, the “IL-12 (p40)” value [2] was 19.56 pg/mL and the “IL-12 (p70)” value [2] was 2.22 pg/mL. It also gave an IL-13 [2] of 15.11 pg/mL, an IL-15 [2] of 3.53 pg/mL and an IL-17A [2] of 2.6 pg/mL. The IL-17E/IL-25 [2] was <20.59↓ pg/ml, the IL-17F [2] was <16.96↓ pg/ml and the IL-18 [2] was 2.04 pg/mL. For the same substance, the IL-22 [2] was 17.03 pg/mL, the IL-27 [2] was 60.93 pg/mL and the IP-10 [2] was 529.41 pg/mL. For the same substance, the M-GSF [2] was 38.29 pg/mL, the MCP-1 [2] was 5545 pg/mL and the MCP-3 [2] was 326 pg/mL and 326.33 pg/mL. The MDC [2] was 995.8 pg/mL, the MIG [2] was 1406 pg/mL and the MIP-1a [2] was 14.98 pg/mL. It also gave an MIP-1b [2] of 42.32 pg/mL, a PDGF-AB/BB [2] of 943.35 pg/mL and an RANTES [2] of 5.41 pg/mL. The TGF-a [2] was 1.79 pg/mL, the TNFa [2] was 27.51 pg/mL and the TNFb [2] was 1.77 pg/mL. The VEGFa [2] was 21.72 pg/mL and the sCD40L [2] was 65.54 pg/mL.
